From US20250206716A1, “Crystal form of Vonoprazan pyroglutamate and preparation method therefor” (HARWAY PHARMA CO., LTD, priority 2022, published 2025)
Where a name gives a salt, the structure may show the parent alone. Each block holds one compound with its values, some of them ahead of it.

Experiments:
H^+K^+-ATPase = target: T1, H^+K^+-ATPase (Sus scrofa, UniProt P19156); assay: Inhibition of H^+K^+-ATPase in microsomal vesicles of porcine gastric mucosa; format: biochemical; details: pH 6.8, inorganic phosphorus readout
T1 construct: H^+K^+ATPase was extracted from porcine gastric mucosal microsomal vesicles by iPhase; tissue iPhase; host or cells: porcine gastric mucosa, microsomal vesicles
Description: Test method: H^+K^+-ATPase is an ATPase localized in gastric mucosal parietal cells and activated exclusively by K^+. In this experiment, H^+K^+-ATPase was extracted from the microsomal vesicles of porcine gastric mucosa, and ATPase could decompose ATP to generate ADP and inorganic phosphorus. The test article combined H^+K^+-ATPase and inhibited its activity. The level of ATPase activity was judged by measuring the amount of inorganic phosphorus, and the inhibitory effect of the test article was determined.
H^+K^+ATPase was extracted from porcine gastric mucosal microsomal vesicles by iPhase.
100 mM TRIS-HCL (PH 6.8): 100 μL 1M TRIS-HCL was added to 900 μl ddH2O and mixed well.
37.5 mM MgCl2: 50 mg MgCl2 was added to […] ddH2O and mixed well. 200 mM KCl: 500 mg KCl was added to 33.5 mL ddH2O and mixed well. 10 mM nigericin and valinomycin: 669 μl and 890 μL DMSO were added and mixed, dispensed into 1 μL nigericin and 5 μl valinomycin per tube, and stored at −20° C.
0.1 mg/ml microsomal vesicles: Protein concentrations were determined upon arrival and dispensed, stored at −80° C., and diluted with 5 mM TRIS-HCL for use.
Control compound: TAK438 was prepared as a 10 mM stock solution in DMSO and dispensed in 1 μL per tube.
Test compound: Product A and crystal form I were prepared as 10 mM stock solutions in ddH2O, and dispensed in 1 μL per tube.
With 20 μM (or 40 μM) as the highest concentration, the control compound and the test compound were diluted stepwise 3-fold with DMSO and ddH2O, respectively, to obtain the samples to be tested at 6 (or 7 or 8) concentration gradients.
Water bath at 37° C. for 30 min, 16.5 μL ATP added and mixed well, and water bath at 37° C. for 30 min
The chromogenic agent was prepared based on the instructions of *H^+K^+ ATP kit (Nanjing Jiancheng).
Per the enzymatic reaction volume of 150 μL, 45 μl of chromogen was added and mixed well, allowed to stand for 2 min, and the absorbance light signal at 660 nm was read by a microplate reader.
• 1) The inhibition rate was calculated according to the following formula: […]

[1] = Deliquescence test (storage at 40° C. and 75% relative humidity); format: physicochemical; set-up: key: “Absence of deliquescence” refers to that no moisture absorption is observed on the sample surface; Slight: “slight deliquescence” refers to that moisture absorption is observed on the sample surface; Obvious: “obvious deliquescence” refers to that lubrication can be observed on the sample surface
Experimental: • (1) Deliquescence test: The product A, crystal form I, and TAK-438 were stored at 40° C. and 75% relative humidity and observed for deliquescence for 30 days, with results recorded every 10 days as detailed in the table below.
(§1) “Absence of deliquescence” refers to that no moisture absorption is observed on the sample surface, “slight deliquescence” refers to that moisture absorption is observed on the sample surface, and “obvious deliquescence” refers to that lubrication can be observed on the sample surface. • (2) Thermal stability test: The product A and crystal form I were stored separately in open containers at 60° C. and tested for storage stability after 30 days (Day 31). Samples at initial and after 30 days of storage were tested for purity by HPLC with three replicates per sample and averaged and the results are presented in the following table.

[2] = Thermal stability test (open containers at 60° C., purity by HPLC); format: physicochemical; details: mean of three replicates; for Purity (%), Day 31: HPLC purity after 30 days in open container at 60° C.; for Purity (%), Initial point: HPLC purity before storage
Experimental: The chromatographic conditions for HPLC purity testing of the product involved in the present invention are as follows:
Column: Ultimate XB-C18, column length: 150 mm, inner diameter: 4.6 mm, particle size: 5 μm
Flow rate: 1.2 mL/min; column temperature: 30° C.; wavelength: 210 nm; injection volume: 20 μL; solvent: acetonitrile-water (volume ratio 5:95)
Mobile phase A: acetonitrile-0.02 mol/L potassium dihydrogen phosphate (adjusted to pH 2.5 with phosphoric acid) (volume ratio 5:95)
Mobile phase B: methanol-acetonitrile-0.02 mol/L potassium dihydrogen phosphate (adjusted to pH 2.5 with phosphoric acid) (volume ratio 7:63:30)
The proportions of mobile phases A and B over time are as follows:
as §1

[3] = tested on: histamine-induced gastric acid secretion; assay: Effect on histamine-induced gastric acid secretion in rats; format: in vivo, SD rats
Description: Surgical modeling: Rats were anesthetized with intraperitoneal injection of ethyl carbamate at a dose of 1.5 g/kg. Rats under complete anesthesia were shaved from the neck and abdomen, and were intubated to maintain airway patency during surgery. The cardiac perfusion tube was orally inserted about 1 cm into the stomach of rats, and the other end of the cardiac perfusion tube was connected to a constant flow pump. A small incision was made below the xiphoid cartilage to find the duodenum, an incision was made transversely, the end of the collection tube of gastric pyloric samples was passed along the duodenum into the stomach about 1 cm through the wound, the duodenum was tightened with the collection tube of gastric pyloric samples with a suture, and the other end of the duodenal incision was tightened. Gastric lavage remnants were rapidly flushed along the esophago-cardia cannula with 150 mL of 37° C. prewarmed saline, outflowed through the collection tube of gastric pylorus samples, and the abdominal wall was sutured to the skin. Perfusion was continued with normal saline at a rate of 1 mL/min for 30 min, the other end of the col-lection tube for gastric pyloric samples was left in vitro, gastric juice samples were collected in conical flasks (one sample per 20 min of col-lection), and two basal gastric juice samples were collected, at which time basal gastric acid secretion reached a steady state.
Histamine-induced gastric acid secretion: Histamine was administered to rats by continuous tail vein injection with a microinjection pump at a dose of 20 μmol/kg/hr. Gastric acid was collected after 80 min, and after three time points, histamine secretion reached a steady state in rats, which was grouped according to the value of gastric acid secretion after histamine administration in rats, and candidate drugs or vehicle controls were administered based on the protocol. […] The details are as follows:
The required amount of Vonoprazan fumarate was weighed, added with an appropriate amount of 0.5% CMC-Na, stirred, sonicated to obtain a homogeneous suspension, and diluted sequentially to the corresponding concentration according to the concentration required by the protocol.
The required amount of HW-N2001 was weighed, added with appropriate physiological saline, and mixed thoroughly to obtain a clear solution, and the pH was adjusted to a range of 3.2 to 3.8. Based on the concentrations required by the protocol, the corresponding concentrations were successively diluted.
One hundred and eighteen of 130 SD rats in good health were selected and randomly divided into 8 groups according to body weight and base-line value after histamine administration after the end of the adaptation period, as detailed in the table below.
Collected gastric juice samples were taken and titrated with 0.01 N sodium hydroxide solution by a basic burette to PH7 as the endpoint, with the phenolphthalein indicator as a color indicator. The titration volume was measured and the acid secretion is calculated according to the following formula: acid secretion (μEq)=volume of NaOH (mL)×10^−3×0.01 mol/L×10^6.
Two basal gastric juice samples were collected, and an infusion extension tube prematurely inhaled with histamine was connected to the indwelling needle of tail vein in rats after basal gastric acid levels were stabilized. The syringe pump was opened, and histamine was calculated according to the dose of 20 μmol/kg/hr and the intravenous drip rate of each animal in the syringe pump was set. Gastric acid samples after histamine administration were collected after 80 minutes of continuous injection of histamine solution.

[4] = 0.375 mg/kg i.v., 60 min after administration
[5] = 0.375 mg/kg i.v., 180 min after administration
[6] = 0.75 mg/kg i.v., 20 min after administration
[7] = 1.5 mg/kg i.v., 20 min after administration
[8] = 1.5 mg/kg i.v., 80 min after administration
[9] = 1.5 mg/kg i.v., 180 min after administration
[10] = 2 mg/kg i.d., 60 min after administration
[11] = 2 mg/kg i.d., 180 min after administration
[12] = 4 mg/kg i.d., 40 min after administration
[13] = 4 mg/kg i.d., 180 min after administration

T1 sequence (P19156 2-1034 limits assumed): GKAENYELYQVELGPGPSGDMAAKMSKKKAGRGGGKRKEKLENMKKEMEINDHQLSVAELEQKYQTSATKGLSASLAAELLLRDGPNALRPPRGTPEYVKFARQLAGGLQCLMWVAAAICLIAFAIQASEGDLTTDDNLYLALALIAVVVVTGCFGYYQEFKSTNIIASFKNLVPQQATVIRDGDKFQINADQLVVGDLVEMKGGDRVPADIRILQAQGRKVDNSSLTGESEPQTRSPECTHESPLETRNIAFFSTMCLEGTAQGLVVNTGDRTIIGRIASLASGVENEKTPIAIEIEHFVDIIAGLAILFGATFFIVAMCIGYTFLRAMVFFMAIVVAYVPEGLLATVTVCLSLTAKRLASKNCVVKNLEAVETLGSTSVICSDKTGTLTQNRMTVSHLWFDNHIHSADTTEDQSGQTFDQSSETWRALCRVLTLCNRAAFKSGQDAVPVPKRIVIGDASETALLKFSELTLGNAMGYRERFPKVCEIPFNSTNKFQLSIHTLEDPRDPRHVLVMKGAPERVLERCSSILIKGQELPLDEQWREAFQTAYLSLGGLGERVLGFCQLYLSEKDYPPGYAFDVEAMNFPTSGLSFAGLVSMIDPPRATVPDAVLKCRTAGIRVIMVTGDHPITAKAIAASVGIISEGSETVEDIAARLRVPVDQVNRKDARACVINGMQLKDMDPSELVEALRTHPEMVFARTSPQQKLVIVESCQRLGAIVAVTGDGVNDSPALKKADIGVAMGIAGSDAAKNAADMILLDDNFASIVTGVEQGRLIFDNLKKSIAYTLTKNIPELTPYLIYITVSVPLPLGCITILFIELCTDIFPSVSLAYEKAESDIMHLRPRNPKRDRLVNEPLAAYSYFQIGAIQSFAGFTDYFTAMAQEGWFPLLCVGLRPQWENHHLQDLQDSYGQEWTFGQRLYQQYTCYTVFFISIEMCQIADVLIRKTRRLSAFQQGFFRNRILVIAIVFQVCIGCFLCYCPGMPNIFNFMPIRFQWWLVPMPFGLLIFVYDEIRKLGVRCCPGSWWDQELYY
T1 sequence (P18434 whole entry partner): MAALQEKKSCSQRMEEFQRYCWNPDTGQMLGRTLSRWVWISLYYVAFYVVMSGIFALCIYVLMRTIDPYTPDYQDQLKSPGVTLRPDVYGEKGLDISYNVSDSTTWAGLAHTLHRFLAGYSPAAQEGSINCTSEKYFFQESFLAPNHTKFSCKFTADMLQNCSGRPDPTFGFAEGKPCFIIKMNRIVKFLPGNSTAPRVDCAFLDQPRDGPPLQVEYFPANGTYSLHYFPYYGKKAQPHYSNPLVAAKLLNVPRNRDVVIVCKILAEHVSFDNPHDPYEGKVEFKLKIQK

Compound: 5-(2-fluorophenyl)-N-methyl-1-(3-pyridylsulfonyl)-1H-pyrrole-3-methylamine pyroglutamate [Product A]
IC50 (H^+K^+-ATPase): 53.4 nM | Deliquescence, Day 10 [1]: Slight | Deliquescence, Day 20 [1]: Obvious | Deliquescence, Day 30 [1]: Obvious | Purity (%), Day 31 [2]: 94.6% | Purity (%), Initial point [2]: 98.0%

Compound: 5-(2-fluorophenyl)-N-methyl-1-(3-pyridylsulfonyl)-1H-pyrrole-3-methylamine pyroglutamate [Crystal form I]
IC50 (H^+K^+-ATPase): 40.4 nM | Gastric acid secretion [3, 4]: 39.15±8.54 μEq HCl/20 min | Inhibition rate of gastric acid secretion [3, 4]: 4.34%±1.28 | Gastric acid secretion [3, 5]: 28.46±5.71 μEq HCl/20 min | Inhibition rate of gastric acid secretion [3, 5]: 27.52%±1.43 | Gastric acid secretion [3, 6]: 37.53±9.87 μEq HCl/20 min | Inhibition rate of gastric acid secretion [3, 6]: 11.6%±0.82 | Inhibition rate of gastric acid secretion ([3]; 0.75 mg/kg i.v., 180 min after administration): 73.68%±1.47 | Gastric acid secretion [3, 7]: 25.67±10.15 μEq HCl | Inhibition rate of gastric acid secretion [3, 7]: 33.28%±0 | Gastric acid secretion [3, 8]: 3.4±1.18 μEq HCl | Inhibition rate of gastric acid secretion [3, 8]: 89.64%±0 | Gastric acid secretion [3, 9]: 2.2±0.56 μEq HCl | Inhibition rate of gastric acid secretion [3, 9]: 93.56%±0.09 | Time after administration at which pharmacodynamic effect reached a stable state ([3]; 0.75 and 1.5 mg/kg i.v.): 60 to 100 min | Time after administration at which pharmacodynamic effect was gradually exerted ([3]; 0.75 and 1.5 mg/kg i.v.): 20 min | ID50 ([3]; intravenous administration, 180 min after administration): 0.53 mg/kg | Deliquescence, Day 10 [1]: Absence of | Deliquescence, Day 20 [1]: Slight | Deliquescence, Day 30 [1]: Obvious | Purity (%), Day 31 [2]: 99.2% | Purity (%), Initial point [2]: 99.8%

IC50 (H^+K^+-ATPase): 41.5 nM | Deliquescence, Day 10 [1]: Absence of | Deliquescence, Day 20 [1]: Absence of | Deliquescence, Day 30 [1]: Absence of
Compound: CNCc1cc(-c2ccccc2F)n(S(=O)(=O)c2cccnc2)c1 [TAK-438, Vonoprazan fumarate]
Gastric acid secretion after administration vs vehicle ([3]; 1 mg/kg i.d., rats): not significantly decreased | Time after administration at which pharmacodynamic effect was gradually exerted ([3]; 2 mg/kg i.d.): 60 min | Gastric acid secretion [3, 10]: 33.21±15.63 μEq HCl/20 min | Inhibition rate of gastric acid secretion [3, 10]: 13.71%±2.12 | Gastric acid secretion [3, 11]: 16.21±14.46 μEq HCl/20 min | Inhibition rate of gastric acid secretion [3, 11]: 57.48%±2.27 | Time after administration at which pharmacodynamic effect was gradually exerted ([3]; 4 mg/kg i.d.): 140 min | Gastric acid secretion [3, 12]: 33.18±11.15 μEq HCl/20 min | Inhibition rate of gastric acid secretion [3, 12]: 12.47%±1.13 | Gastric acid secretion [3, 13]: 4.41±4.02 μEq HCl/20 min | Inhibition rate of gastric acid secretion [3, 13]: 87.03%±0.81 | Time at which strongest efficacy was reached ([3]; duodenal administration): 180 min | ID50 ([3]; duodenal administration, 180 min): 1.87 mg/kg
